The values below are quoted from earlier work in US20090023784A1, “USE OF DEFERIPRONE AND METHODS TO TREAT AND/OR PREVENT FRIEDREICH ATAXIA RESULTING FROM INTRACELLULAR MISHANDLING OF IRON” (priority 2006, published 2009).

The data set deals with intracellular iron pools of macrophages, hepatocytes, and cardiomyocyte cell lines. The note with it: living cells, fluorescence probes; cited from earlier work.

As for `CC(=O)N(O)CCCCCNC(=O)CCC(=O)N(O)CCCCCNC(=O)CCC(=O)N(O)CCCCCN` [desferrioxamine], the “access to intracellular iron pools / chelation” value is reported as “slow”.
